Source: patent publication US9187464B2, “TRPV4 antagonists” (GlaxoSmithKline Intellectual Property (No. 2) Limited, priority 2011, dated 2015)

Molecular target: T1, human TRPV4 (Homo sapiens, UniProt Q9HBA0)
T1 construct: expressed in transfected cells; host or cells: HEK-293-MSR-II cells transduced with 1% BacMam virus
Test: Ligand-gated assay (Fluo4 calcium, FLIPR; inhibition of agonist-induced activation)
Assay type: cell-based
Settings: HEK-293-MSR-II cells transduced with BacMam human TRPV4; agonist at EC80
Procedure, shortened: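 Agonist (EC80) response read on FLIPR as Fluo-4 (2 uM) fluorescence after 10-min room-temperature compound exposure in HBSS/HEPES pH 7.4 with 0.01% Chaps. Cells: HEK-293-MSR-II expressing human TRPV4 via BacMam; output is IC50 of inhibition.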

T1 sequence (Q9HBA0 whole entry): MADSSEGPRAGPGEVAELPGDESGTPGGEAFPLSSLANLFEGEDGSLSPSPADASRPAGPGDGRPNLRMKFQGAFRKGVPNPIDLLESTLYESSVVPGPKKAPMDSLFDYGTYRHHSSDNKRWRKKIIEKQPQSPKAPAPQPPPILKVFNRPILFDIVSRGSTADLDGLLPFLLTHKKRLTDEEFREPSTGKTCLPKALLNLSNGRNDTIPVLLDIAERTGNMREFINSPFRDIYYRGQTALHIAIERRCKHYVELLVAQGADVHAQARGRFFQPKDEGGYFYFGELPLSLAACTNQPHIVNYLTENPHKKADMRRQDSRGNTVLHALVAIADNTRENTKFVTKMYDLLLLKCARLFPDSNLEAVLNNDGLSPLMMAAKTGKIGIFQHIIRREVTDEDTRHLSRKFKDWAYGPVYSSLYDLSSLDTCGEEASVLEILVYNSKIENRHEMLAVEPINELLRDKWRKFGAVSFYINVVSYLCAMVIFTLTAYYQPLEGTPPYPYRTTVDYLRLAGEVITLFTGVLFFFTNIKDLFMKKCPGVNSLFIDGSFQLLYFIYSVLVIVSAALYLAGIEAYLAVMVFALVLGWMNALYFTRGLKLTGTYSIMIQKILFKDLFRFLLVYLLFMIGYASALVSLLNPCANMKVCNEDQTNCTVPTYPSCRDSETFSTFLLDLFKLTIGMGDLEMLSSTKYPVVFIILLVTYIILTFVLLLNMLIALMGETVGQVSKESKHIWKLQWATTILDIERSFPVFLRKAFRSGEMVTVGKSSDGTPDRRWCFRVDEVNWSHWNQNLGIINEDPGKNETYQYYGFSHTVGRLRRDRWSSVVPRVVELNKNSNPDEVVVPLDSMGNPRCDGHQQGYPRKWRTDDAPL

C[C@]1(Cn2cnc3ccc(C#N)cc32)CCC[C@@]2(CN(c3ncc(Cl)cc3F)C(=O)O2)C1 [Example 114, 1-(((5S,7S)-3-(5-chloro-3-fluoropyridin-2-yl)-7-methyl-2-oxo-1-oxa-3-azaspiro[4.5]decan-7-yl)methyl)-1H-benzo[d]imidazole-6-carbonitrile]
IC50: 0.1 to 10 nM

COc1ccc(N2C[C@@]3(CCC[C@](C)(Cn4cnc5ccc(C#N)cc54)C3)OC2=O)cn1 [Example 13]
IC50: 0.1 to 10 nM

C[C@]1(Cn2cnc3ccc(C#N)cc32)CCC[C@@]2(CN(c3ccc(C(F)(F)F)nc3)C(=O)O2)C1 [Example 139, 1-({(5S,7S)-7-methyl-2-oxo-3-[6-(trifluoromethyl)-3-pyridinyl]-1-oxa-3-azaspiro[4.5]dec-7-yl}methyl)-1H-benzimidazole-6-carbonitrile]
IC50: 0.1 to 10 nM

C[C@]1(Cn2cnc3ccc(C#N)cc32)CCCC2(CN(Cc3cc(F)ccn3)C(=O)O2)C1 (stereo in doubt) [Example 158, 1-(((5S,7S)-3-((4-fluoropyridin-2-yl)methyl)-7-methyl-2-oxo-1-oxa-3-azaspiro[4.5]decan-7-yl)methyl)-1H-benzo[d]imidazole-6-carbonitrile]
IC50: 0.1 to 10 nM

CCn1ncc(N2C[C@@]3(CCC[C@](C)(Cn4cnc5ccc(C#N)cc54)C3)OC2=O)c1C [Example 16, 1-(((5S,7S)-3-(1-Ethyl-5-methyl-1H-pyrazol-4-yl)-7-methyl-2-oxo-1-oxa-3-azaspiro[4.5]decan-7-yl)methyl)-1H-benzo[d]imidazole-6-carbonitrile]
IC50: 0.1 to 10 nM

Cc1c(C(C)(C)C)noc1N1C[C@@]2(CCC[C@H](Cn3cnc4ccc(C#N)cc43)C2)OC1=O [Example 46, 1-(((5S,7S)-3-(3-(tert-butyl)-4-methylisoxazol-5-yl)-2-oxo-1-oxa-3-azaspiro[4.5]decan-7-yl)methyl)-1H-benzo[d]imidazole-6-carbonitrile]
IC50: 0.1 to 10 nM

N#Cc1ccc2ncn(C[C@H]3CCC[C@]4(C3)CN(Cc3csc5ccc(Cl)cc35)C(=O)O4)c2c1 [Example 27, 1-({(5S,7S)-3-[(5-Chloro-1-benzothien-3-yl)methyl]-2-oxo-1-oxa-3-azaspiro[4.5]dec-7-yl}methyl)-1H-benzimidazole-6-carbonitrile]
IC50: 0.1 to 10 nM

C[C@]1(Cn2cnc3ccc(C#N)cc32)CCC[C@@]2(CN(c3cc(-c4ccccc4)no3)C(=O)O2)C1 [Example 35, 1-{[(5S,7S)-7-methyl-2-oxo-3-(3-phenyl-5-isoxazolyl)-1-oxa-3-azaspiro[4.5]dec-7-yl]methyl}-1H-benzimidazole-6-carbonitrile]
IC50: 10 to 50 nM

CC(C)(C)c1ncc(N2C[C@@]3(CCC[C@H](Cn4cnc5ccc(C#N)cc54)C3)OC2=O)cn1 [Example 116, 1-(((5S,7S)-3-(2-(tert-butyl)pyrimidin-5-yl)-2-oxo-1-oxa-3-azaspiro[4.5]decan-7-yl)methyl)-1H-benzo[d]imidazole-6-carbonitrile]
IC50: 10 to 50 nM

CC(C)(C)c1coc(N2C[C@@]3(CCC[C@](C)(Cn4cnc5ccc(C#N)cc54)C3)OC2=O)n1 [Example 42, 1-(((5S,7S)-3-(4-(tert-butyl)oxazol-2-yl)-7-methyl-2-oxo-1-oxa-3-azaspiro[4.5]decan-7-yl)methyl)-1H-benzo[d]imidazole-6-carbonitrile]
IC50: 10 to 50 nM

C[C@]1(Cn2cnc3ccc(C#N)cc32)CCC[C@@]2(CN(c3ncc(C(F)(F)F)cn3)C(=O)O2)C1 [Example 54, 1-(((5S,7S)-7-methyl-2-oxo-3-(5-(trifluoromethyl)pyrimidin-2-yl)-1-oxa-3-azaspiro[4.5]decan-7-yl)methyl)-1H-benzo[d]imidazole-6-carbonitrile]
IC50: 50 to 500 nM

CC(C)(C)c1noc(C(C)(C)CN2C[C@@]3(CCC[C@H](Cn4cnc5ccc(C#N)cc54)C3)OC2=O)n1 [Example 79, 1-[((5S,7S)-3-{2-[3-(1,1-dimethylethyl)-1,2,4-oxadiazol-5-yl]-2-methylpropyl}-2-oxo-1-oxa-3-azaspiro[4.5]dec-7-yl)methyl]-1H-benzimidazole-6-carbonitrile]
IC50: 0.1 to 10 nM

Cn1nc(C(C)(C)C)cc1N1C[C@@]2(CCC[C@](C)(Cn3cnc4ccc(C#N)cc43)C2)OC1=O [Example 36, 1-({(5S,7S)-3-[3-(1,1-dimethylethyl)-1-methyl-1H-pyrazol-5-yl]-7-methyl-2-oxo-1-oxa-3-azaspiro[4.5]dec-7-yl}methyl)-1H-benzimidazole-6-carbonitrile]
IC50: 50 to 500 nM

CC(C)n1cc(CN2C[C@@]3(CCC[C@](C)(Cn4cnc5ccc(C#N)cc54)C3)OC2=O)nn1 [Example 104, 1-[((5S,7S)-7-methyl-3-{[1-(1-methylethyl)-1H-1,2,3-triazol-4-yl]methyl}-2-oxo-1-oxa-3-azaspiro[4.5]dec-7-yl)methyl]-1H-benzimidazole-6-carbonitrile]
IC50: 50 to 500 nM

COc1cc(C)c(N2C[C@@]3(CCC[C@H](Cn4cnc5ccc(C#N)cc54)C3)OC2=O)cn1 [Example 111, 1-({(5S,7S)-3-[4-methyl-6-(methyloxy)-3-pyridinyl]-2-oxo-1-oxa-3-azaspiro[4.5]dec-7-yl}methyl)-1H-benzimidazole-6-carbonitrile]
IC50: 10 to 50 nM

N#Cc1ccc2ncn(C[C@H]3CCC[C@]4(C3)CN(Cc3nc(-c5ccccc5)cs3)C(=O)O4)c2c1 [Example 66, 1-({(5S,7S)-2-oxo-3-[(4-phenyl-1,3-thiazol-2-yl)methyl]-1-oxa-3-azaspiro[4.5]dec-7-yl}methyl)-1H-benzimidazole-6-carbonitrile]
IC50: 10 to 50 nM

CCOc1ccnc(CN2C[C@@]3(CCC[C@](C)(Cn4cnc5ccc(C#N)cc54)C3)OC2=O)c1 [Example 156, 1-(((5S,7S)-3-((4-ethoxypyridin-2-yl)methyl)-7-methyl-2-oxo-1-oxa-3-azaspiro[4.5]decan-7-yl)methyl)-1H-benzo[d]imidazole-6-carbonitrile]
IC50: 0.1 to 10 nM

COc1cc(OC)c(N2C[C@@]3(CCC[C@H](Cn4cnc5ccc(C#N)cc54)C3)OC2=O)cn1 [Example 141, 1-({(5S,7S)-3-[4,6-bis(methyloxy)-3-pyridinyl]-2-oxo-1-oxa-3-azaspiro[4.5]dec-7-yl}methyl)-1H-benzimidazole-6-carbonitrile]
IC50: 10 to 50 nM

Cc1cnc(N2C[C@@]3(CCC[C@](C)(Cn4cnc5ccc(C#N)cc54)C3)OC2=O)cn1 [Example 117, 1-(((5S,7S)-7-methyl-3-(5-methylpyrazin-2-yl)-2-oxo-1-oxa-3-azaspiro[4.5]decan-7-yl)methyl)-1H-benzo[d]imidazole-6-carbonitrile]
IC50: 50 to 500 nM

N#Cc1ccc2ncn(C[C@H]3CCC[C@]4(C3)CN(Cc3cccc(-c5ccccc5)n3)C(=O)O4)c2c1 [Example 64, 1-({(5S,7S)-2-oxo-3-[(6-phenyl-2-pyridinyl)methyl]-1-oxa-3-azaspiro[4.5]dec-7-yl}methyl)-1H-benzimidazole-6-carbonitrile]
IC50: 0.1 to 10 nM

CC(C)(F)c1cc(N2C[C@@]3(CCC[C@](C)(Cn4cnc5ccc(C#N)cc54)C3)OC2=O)on1 [Example 39, 1-(((5S,7S)-3-(3-(2-fluoropropan-2-yl)isoxazol-5-yl)-7-methyl-2-oxo-1-oxa-3-azaspiro[4.5]decan-7-yl)methyl)-1H-benzo[d]imidazole-6-carbonitrile]
IC50: 0.1 to 10 nM

N#Cc1ccc2ccn(C[C@H]3CCC[C@]4(C3)CN(Cc3csc5ccc(Cl)cc35)C(=O)O4)c2c1 (stereo in doubt) [Example 59, 1-({3-[(5-chloro-1-benzothien-3-yl)methyl]-2-oxo-1-oxa-3-azaspiro[4.5]dec-7-yl}methyl)-1H-indole-6-carbonitrile]
IC50: 50 to 500 nM

CCOc1cc(C)c(N2C[C@@]3(CCC[C@](C)(Cn4cnc5ccc(C#N)cc54)C3)OC2=O)nn1 [Example 24, 1-(((5S,7S)-3-(6-Ethoxy-4-methylpyridazin-3-yl)-7-methyl-2-oxo-1-oxa-3-azaspiro[4.5]decan-7-yl)methyl)-1H-benzo[d]imidazole-6-carbonitrile]
IC50: 0.1 to 10 nM

CC(C)Cc1noc(C(C)(C)CN2C[C@@]3(CCC[C@H](Cn4cnc5ccc(C#N)cc54)C3)OC2=O)n1 [Example 82, 1-[((5S,7S)-3-{2-methyl-2-[3-(2-methylpropyl)-1,2,4-oxadiazol-5-yl]propyl}-2-oxo-1-oxa-3-azaspiro[4.5]dec-7-yl)methyl]-1H-benzimidazole-6-carbonitrile]
IC50: 0.1 to 10 nM

COCCOC(C)(C)c1cnc(N2C[C@@]3(CCC[C@](C)(Cn4cnc5ccc(C#N)cc54)C3)OC2=O)cn1 [Example 163, 1-(((5S,7S)-3-(5-(2-(2-methoxyethoxy)propan-2-yl)pyrazin-2-yl)-7-methyl-2-oxo-1-oxa-3-azaspiro[4.5]decan-7-yl)methyl)-1H-benzo[d]imidazole-6-carbonitrile]
IC50: 0.1 to 10 nM

C[C@]1(Cn2cnc3ccc(C#N)cc32)CCC[C@@]2(CN(c3cnccc3C(F)(F)F)C(=O)O2)C1 [Example 144, 1-(((5S,7S)-7-methyl-2-oxo-3-(4-(trifluoromethyl)pyridin-3-yl)-1-oxa-3-azaspiro[4.5]decan-7-yl)methyl)-1H-benzo[d]imidazole-6-carbonitrile]
IC50: 0.1 to 10 nM

CC(C)(C)n1cc(N2C[C@@]3(CCC[C@](C)(Cn4cnc5ccc(C#N)cc54)C3)OC2=O)nn1 [Example 52, 1-(((5S,7S)-3-(1-(tert-butyl)-1H-1,2,3-triazol-4-yl)-7-methyl-2-oxo-1-oxa-3-azaspiro[4.5]decan-7-yl)methyl)-1H-benzo[d]imidazole-6-carbonitrile]
IC50: 50 to 500 nM

C[C@]1(Cn2cnc3ccc(C#N)cc32)CCC[C@@]2(CN(Cc3ccccn3)C(=O)O2)C1 [Example 4, 1-{[(5S,7S)-7-Methyl-2-oxo-3-(2-pyridinylmethyl)-1-oxa-3-azaspiro[4.5]dec-7-yl]methyl}-1H-benzimidazole-6-carbonitrile]
IC50: 0.1 to 10 nM

Cc1nc(C(F)(F)F)cnc1N1C[C@@]2(CCC[C@H](Cn3cnc4ccc(C#N)cc43)C2)OC1=O [Example 131, 1-(((5S,7S)-3-(3-methyl-5-(trifluoromethyl)pyrazin-2-yl)-2-oxo-1-oxa-3-azaspiro[4.5]decan-7-yl)methyl)-1H-benzo[d]imidazole-6-carbonitrile]
IC50: 50 to 500 nM
